According to patent US11434227B2, “Broad spectrum antibacterial activity of novel bisbenzimidazoles targeting topoisomerase IA and the synergistic composition of bisbenzimidazole with efflux pump inhibitors against pathogenic bacteria” (Jawaharlal Nehru University (JNU), priority 2016, dated 2022):
In brackets after ≈: the same amount, converted by molar mass.

What was measured:
[1] = Synergistic effect of CCCP and HN12b in neutropenic thigh infection model; format: in vivo, Balb/c mice; conditions: HN12b 3 mg/kg bw + CCCP 3 mg/kg bw
[2] = system: isogenic efflux deleted strains; assay: Susceptibility of isogenic efflux deleted strains versus wild type; format: cell-based, Escherichia coli; conditions: in comparison to wild type strains
E. coli ATCC 25922 = assay: Neutropenic thigh infection model
Experimental: The neutropenic mice thigh infection model, fully described by. Craig, was used in this study. Female Balb/c mice (6 mice per dosing group) weighing 20-25 g were rendered neutropenic with 2 intraperitoneal injections of cyclophosphamide (150 mg/kg of body weight 4 days prior to bacterial inoculation and 100 mg/kg 1 day before inoculation) 2 h prior to bacterial inoculation. […] Bacteria were injected into the right thigh of each mouse at time zero. […] Neutropenia was defined as an absolute neutrophil count of 500 polymorphonuclear leukocytes/cm^3 of blood. The bacterial suspension was diluted to a concentration of 10^6 CFU/mL with normal saline. Then, 0.1 mL of the bacterial suspension was injected into each posterior thigh muscle 2 h after the second dose of cyclophosphamide was administered. […] Twenty-four hours after drug treatment was begun, the mice were humanely sacrificed. Right thigh muscles from each mouse were aseptically collected, homogenized and serially diluted 1:10 in phosphate buffer saline, and processed for quantitative cultures.

Enterococcus sp. (1121) = assay: Susceptibility (MIC50/MIC90), broth microdilution
Experimental: (§1) MICs were determined by the broth microdilution method according to CLSI methods (Clinical and Laboratory Standards Institute, 2005). Inoculants were incubated at 37° C. on cation adjusted Mueller Hinton (MH) Broth for 18 to 24 h. Compound were dissolved in media to 10 doubling dilutions from 128 to 0.125 μg/mL. All the bacterial strains were grown in 96 well plate with low evaporation lid (Falcon, Becton Dickinson) in presence of derivatives of benzimidazoles at 0.125, 0.25, 0.5, 1, 2, 4, 8, 16, 32, 64, 128, 256 μg/mL concentrations. […] Plates were read by Tecan Micro-plate Reader at 600 nm.

Enterococcus sp. (432) = assay: Susceptibility (MIC50/MIC90), broth microdilution
Experimental: as §1

Staphylococcus sp. (976) = assay: Susceptibility (MIC50/MIC90), broth microdilution
Experimental: as §1

[3] = system: Acinetobacter baumannii (MTCC1920); assay: Susceptibility (MIC50/MIC90), broth microdilution
Experimental: as §1

[4] = system: Acinetobacter baumannii (AB387); assay: Susceptibility (MIC50/MIC90), broth microdilution
Experimental: as §1

[5] = system: Acinetobacter baumannii (AB312); assay: Susceptibility (MIC50/MIC90), broth microdilution
Experimental: as §1

[6] = system: Pseudomonas aeruginosa (Ps162); assay: Susceptibility (MIC50/MIC90), broth microdilution
Experimental: as §1

[7] = system: Pseudomonas aeruginosa (MTCC1688); assay: Susceptibility (MIC50/MIC90), broth microdilution
Experimental: as §1

[8] = system: Klebsiella planticola (MTCC 2272); assay: Susceptibility (MIC50/MIC90), broth microdilution; conditions: MTCC2272
Experimental: as §1

[9] = system: Klebsiella planticola (K235); assay: Susceptibility (MIC50/MIC90), broth microdilution
Experimental: as §1

[10] = system: Salmonella typhimurium (St412); assay: Susceptibility (MIC50/MIC90), broth microdilution; conditions: Salmonella enterica
Experimental: as §1

E. coli K12 mutant ΔacrA = assay: Susceptibility of E. coli K12 and mutants (MIC90); conditions: Escherichia coli
Experimental: as §1

E. coli K12 mutant ΔemrA = assay: Susceptibility of E. coli K12 and mutants (MIC90); conditions: Escherichia coli
Experimental: as §1

[11] = system: E. coli K12 mutant ΔTopIB; assay: Susceptibility of E. coli K12 and mutants (MIC90); conditions: Escherichia coli
Experimental: as §1

E. coli DH5α = assay: Susceptibility (MIC, PAE, MBC), broth microdilution; conditions: Escherichia coli
Experimental: as §1

E. coli 72^R = assay: as above; conditions: Escherichia coli
E. coli 118^R = assay: as above; conditions: Escherichia coli
E. coli 451^R = assay: as above; conditions: Escherichia coli
Experimental: as §1

E. coli 81^R = assay: as above; conditions: Escherichia coli
Experimental: as §1

E. coli 401^R = assay: as above; conditions: Escherichia coli
Experimental: as §1

E. coli 555^R = assay: as above; conditions: Escherichia coli
Experimental: as §1

[12] = system: most of the pathogenic bacterial strains; assay: MIC of HN12b in combination with efflux pump inhibitor; conditions: combination with CCCP and PAβN
Experimental: Briefly, the broth microdilution plates were inoculated with each test organism to yield the appropriate density (10^5 CFU/ml) in 100 μl Mueller-Hinton broth (MHB) and incubated for 24 h at 37° C. in ambient air. One well with no antibiotic was used as a positive growth control on each plate. Plates were read for visual turbidity, and results were recorded after 24 h of incubation at 37° C. in ambient air by using a magnifying mirror reader, as turbidity in wells indicated growth of the microorganism. The MIC was determined as the well in the microtiter plate with the lowest drug concentration at which there was no visible growth. […] MICAB was defined as the MIC of drug A in the presence of drug B; MICBA was defined as the MIC of drug B in the presence of drug A.

E. coli KK45 = assay: HN12b in combination with efflux pump inhibitors (CB method, FICI)
Experimental: (§2) 96-well microtiter plates containing MIC25 concentrations of the Efflux pump inhibitor (CCCP, PAβN) and HN12b antimicrobial drugs alone and in CB combination were used. The MICs of the individual drugs HN12b, PAβN and CCCP (0.25 to 128 μg/ml) and of the combinations were determined using the broth microdilution technique as recommended by the CLSI. Briefly, the broth microdilution plates were inoculated with each test organism to yield the appropriate density (10^5 CFU/ml) in 100 μl Mueller-Hinton broth (MHB) and incubated for 24 h at 37° C. in ambient air. One well with no antibiotic was used as a positive growth control on each plate. Plates were read for visual turbidity, and results were recorded after 24 h of incubation at 37° C. in ambient air by using a magnifying mirror reader, as turbidity in wells indicated growth of the microorganism. The MIC was determined as the well in the microtiter plate with the lowest drug concentration at which there was no visible growth. […] MICAB was defined as the MIC of drug A in the presence of drug B; MICBA was defined as the MIC of drug B in the presence of drug A.
(§3) The fractional inhibitory concentration index (FICI) was calculated for each antibiotic in each combination by using the following formula: FICA+FICB=FICI, where FICA equals the MIC of drug A in combination divided by the MIC of drug A alone and FICB equals the MIC of drug B in combination divided by the MIC of drug B alone. The FICIs were interpreted as follows: FICI of ≤0.5 will correspond to synergy; FICI of >0.5 to ≤1 will correspond to additivity; FICI of >1 to ≤4 will correspond to no interaction (indifference), and FICI of >4 will correspond antagonism.

A. baumannii (AB387) = assay: as above; conditions: for FICI / Interpretation: A. baumannii (AB387)
Experimental: as §2, §3

P. aeruginosa (Ps 366) = assay: as above
Experimental: as §2, §3

Providencia sp. (P592) = assay: as above
Experimental: as §2, §3

[13] = P. aeruginosa (Ps 366), HN12b + CCCP
[14] = Providencia sp. (P592), HN12b + PAβN

In the case of `CCCN1CCN(c2nc3ccc(-c4nc5ccccc5[nH]4)cc3[nH]2)CC1` [HN12b, 2′-(4-propylpiperazine-1-yl)-1H, 3′H-2,5′-bibenzimidazole], the “in vivo efficacy in combination with CCCP” value [1] is reported as “further improves”, the “sensitisation of efflux deleted strains” value [2] is reported as “more sensitised” and the in vivo efficacy (E. coli ATCC 25922; Neutropenia thigh model, E. coli ATCC 25922) is reported as “good in vivo efficacy”. The “Dose at 1 log reduction” value (E. coli ATCC 25922; Neutropenic Thigh, ATCC25922) was 3 mg/kg/bw/day, the “Dose at 3 log reduction” value (E. coli ATCC 25922; Neutropenic Thigh, ATCC25922) was 5 mg/kg/bw/day and the MIC50 (Enterococcus sp. (1121)) was < 0.25 µg/mL. For the same compound, the MIC90 (Enterococcus sp. (1121)) was 8 µg/mL (≈ 22.2 µM), the MIC50 (Enterococcus sp. (432)) was < 0.25 µg/mL and the MIC90 (Enterococcus sp. (432)) was 8.25 µg/mL (≈ 22.9 µM). For the same compound, the MIC50 (Staphylococcus sp. (976)) was 0.31 µg/mL (≈ 0.86 µM), the MIC90 (Staphylococcus sp. (976)) was 15.3 µg/mL (≈ 42.5 µM) and the MIC50 [3] was > 128 µg/mL. It also gave an MIC90 [3] of 128 µg/mL (≈ 355 µM), an MIC50 [4] of 3.25 µg/mL (≈ 9.02 µM) and an MIC90 [4] of 8 µg/mL (≈ 22.2 µM). It also gave an MIC50 [5] of 3.8 µg/mL (≈ 10.5 µM), an MIC90 [5] of 3.8 µg/mL (≈ 10.5 µM) and an MIC50 [6] of 2.94 µg/mL (≈ 8.16 µM). For the same compound, the MIC90 [6] was 5.94 µg/mL (≈ 16.5 µM), the MIC50 [7] was > 128 µg/mL and the MIC90 [7] was 128 µg/mL (≈ 355 µM). For the same compound, the MIC50 [8] was 30 µg/mL (≈ 83.3 µM), the MIC90 [8] was 128 µg/mL (≈ 355 µM) and the MIC50 [9] was 4.52 µg/mL (≈ 12.5 µM). For the same compound, the MIC90 [9] was 84.5 µg/mL (≈ 234 µM), the MIC50 [10] was < 0.25 µg/mL and the MIC90 [10] was < 0.25 µg/mL. For the same compound, the MIC90 (E. coli K12 mutant ΔacrA) was 0.87 µg/mL (≈ 2.41 µM), the MIC90 (E. coli K12 mutant ΔemrA) was 5.8 µg/mL (≈ 16.1 µM) and the MIC90 [11] was 3.8 µg/mL (≈ 10.5 µM). The MBC (E. coli DH5α) was 0.8 µg/mL (≈ 2.22 µM), the MIC50 (E. coli DH5α) was 0.2 µg/mL (≈ 0.555 µM) and the MIC90 (E. coli DH5α) was 0.2 µg/mL (≈ 0.555 µM). It also gave an MIC90 (E. coli 72^R) of 3.1 µg/mL (≈ 8.6 µM), an MBC (E. coli 118^R) of 2 µg/mL (≈ 5.55 µM) and an MIC50 (E. coli 118^R) of 1 µg/mL (≈ 2.77 µM). The MIC90 (E. coli 118^R) was 1.7 µg/mL (≈ 4.72 µM), the MBC (E. coli 451^R) was 2 µg/mL (≈ 5.55 µM) and the MIC50 (E. coli 451^R) was 1 µg/mL (≈ 2.77 µM). It also gave an MIC90 (E. coli 451^R) of 1.7 µg/mL (≈ 4.72 µM), an MBC (E. coli 81^R) of 2 µg/mL (≈ 5.55 µM) and an MIC50 (E. coli 81^R) of 1 µg/mL (≈ 2.77 µM). The MIC90 (E. coli 81^R) was 1.6 µg/mL (≈ 4.44 µM), the MBC (E. coli 401^R) was 2 µg/mL (≈ 5.55 µM) and the MIC50 (E. coli 401^R) was 1 µg/mL (≈ 2.77 µM). The MIC90 (E. coli 401^R) was 1.7 µg/mL (≈ 4.72 µM), the MBC (E. coli 555^R) was 8 µg/mL (≈ 22.2 µM) and the MIC50 (E. coli 555^R) was 4 µg/mL (≈ 11.1 µM). The MIC90 (E. coli 555^R) was 6.8 µg/mL (≈ 18.9 µM), the “reduction in MIC in combination with efflux pump inhibitor” value [12] was “four to eight fold reduction in MIC” and the FICI (E. coli KK45; E. coli KK45, HN12b + CCCP) was 0.3. The Interpretation (E. coli KK45; E. coli KK45, HN12b + CCCP) was “Synergy (FICI of ≤0.5 will correspond to synergy)”, the FICI (E. coli KK45; E. coli KK45, HN12b + PAβN) was 0.7 and the MIC90 (E. coli KK45; Escherichia coli, KK45) was 16 µg/mL. For the same compound, the FICI (A. baumannii (AB387); HN12b + CCCP) was 0.2, the Interpretation (A. baumannii (AB387); HN12b + CCCP) was “Synergy (FICI of ≤0.5 will correspond to synergy)” and the FICI (A. baumannii (AB387); HN12b + PAβN) was 0.2. The Interpretation (A. baumannii (AB387); HN12b + PAβN) was “Synergy (FICI of ≤0.5 will correspond to synergy)”, the MIC90 (A. baumannii (AB387); Acinetobacter baumannii) was 8 µg/mL and the FICI (P. aeruginosa (Ps 366); [13]) was 0.6. For the same compound, the Interpretation (P. aeruginosa (Ps 366); [13]) was “Synergy (FICI of ≤0.5 will correspond to synergy)”, the FICI (P. aeruginosa (Ps 366); P. aeruginosa (Ps 366), HN12b + PAβN) was 0.9 and the MIC90 (P. aeruginosa (Ps 366); Pseudomonas aeruginosa) was > 128 µg/mL. For the same compound, the MIC90 (Providencia sp. (P592); Providencia) was 58 µg/mL, the FICI (Providencia sp. (P592); Providencia sp. (P592), HN12b + CCCP) was 0.6 and the FICI (Providencia sp. (P592); [14]) was 0.4. For the same compound, the Interpretation (Providencia sp. (P592); [14]) was “Synergy (FICI of ≤0.5 will correspond to synergy)”.
